# Patent US6548638B2, “Peptoid and nonpeptoid containing α-keto oxadiazoles as serine protease inhibitors” (Cortech, Inc., priority 1998, dated 2003)
# Key:
# [1] = biological target: T1, HNE (elastase derived from human sputum, HSE) (Homo sapiens, UniProt P08246); assay: In vitro inhibition of elastase (rate assay, N-methoxysuccinyl-Ala-Ala-Pro-Val-p-nitroaniline substrate); format: biochemical; details: inhibition activity against HNE; IC50 by log-logit method converted to K1 by Dixson plot; pH 8.0, 37° C.
# T1 construct: The elastase used in the protocol was derived from human sputum (HSE); purchased Elastin Product Co., Inc, Missouri, USA SE-563; host or cells: human sputum (natural source)
# T1 sequence (P08246 30-267): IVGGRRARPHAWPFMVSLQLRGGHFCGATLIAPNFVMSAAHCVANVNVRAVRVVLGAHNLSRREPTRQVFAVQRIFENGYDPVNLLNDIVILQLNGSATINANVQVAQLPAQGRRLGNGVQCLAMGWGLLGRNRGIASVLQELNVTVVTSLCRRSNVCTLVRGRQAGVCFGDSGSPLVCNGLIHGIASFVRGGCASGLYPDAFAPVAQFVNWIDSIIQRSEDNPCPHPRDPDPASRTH
# [2] = system: elastase activity in whole blood; assay: Ex vivo inhibition of elastase (whole blood stimulated with opsonized zymosan, after oral administration); format: in vivo; details: blood sampled 60 minutes after administration, 24 hour fasted animal; for Percent Inhibition at Indicated Dosage, 3 mg/kg: 3 mg/kg oral; for Percent Inhibition at Indicated Dosage, 10 mg/kg: 10 mg/kg oral; for Percent Inhibition at Indicated Dosage, 30 mg/kg: 30 mg/kg oral
# Protocol: Sixty (60) minutes after the oral administration of an inhibitor with an appropriate vehicle, a blood sample (0.9 ml) is collected through the abdominal aorta by a syringe containing 0.1 ml of a 3.8% sodium citrate solution.
# The blood sample is processed as follows: 60 μl of (final 0.1-1 mg/ml) a suspended solution of opsonized zymosan in Hank's buffer is added to the preincubated whole blood (540 μl) for 5 minutes at 37° C., and the resulting mixture is incubated for 30 minutes at the same temperature. The reaction is terminated by immersing the test tube into ice water. The reaction mixture is then centrifuged at 3,000 rpm for 10 minutes at 4° C. Twenty (20) μl of each of the resulting supernatant (the Sample) is measured for elastase activity.
# The mixture consisting of the following components is incubated for 24 hours at 37° C., and then optical density is measured at 405 nm:
# A test sample mixed with 1-methyl-2-pyrrolidone instead of the substrate is regarded as Substrate (−). A test sample mixed with saline instead of the Sample is regarded as Blank. The remaining elastase activity in the Sample is calculated according to the following: […]
# optical density of Substrate (+)−(optical density of Substrate (−)+optical density of Blank)
# as a total production of p-nitroaniline over 24 hours based on a standard curve for the amount of p-nitroaniline.
# An average activity is calculated based on the test sample of 5-6 animals. An agent at 3, 10 or 30 mg/kg is orally given by a forced administration to a 24 hour fasted animal at 60 minutes before the blood sampling. Optical density is measured by SPECTRA MAX 250 (Molecular Devices).
SMILES,Ki [1],"Percent Inhibition at Indicated Dosage, 3 mg/kg [2]","Percent Inhibition at Indicated Dosage, 10 mg/kg [2]","Percent Inhibition at Indicated Dosage, 30 mg/kg [2]"
"CC(C)C(NC(=O)Cn1c(-c2ccc(F)cc2)nccc1=O)C(=O)c1nnc(C(C)(C)c2ccccc2)o1 (racemic) [Example 11, 2-[6-Oxo-2-(4-fluorophenyl)-1,6-dihydro-1-pyrimidinyl]-N-[1-(2-[5-(α,α-dimethylbenzyl)-1,3,4-oxadiazolyl]carbonyl)-2-(R,S)-methylpropyl]acetamide]",5.34 nM,–,–,–
"CC(C)C(NC(=O)Cn1c(-c2ccccc2)ncc(N)c1=O)C(=O)c1nnc(C(C)(C)c2ccc3c(c2)OCO3)o1 (racemic) [Example 8, 2-[5-Amino-6-oxo-2-phenyl-1,6-dihydro-1-pyrimidinyl]-N-[1-(2-[5-(α,α-dimethyl-3,4methylenedioxybenzyl)-1,3,4-oxadiazolyl]carbonyl)-2-(R,S)-methylpropyl]acetamide]",1.06 nM,–,–,–
"CC(C)C(NC(=O)Cn1c(-c2ccccc2)nccc1=O)C(=O)c1nnc(C(C)(C)c2ccc3c(c2)OCO3)o1 (racemic) [Example 9, 2-[6-Oxo-2-phenyl-1,6-dihydro-1-pyrimidinyl]-N-[1-(2-[5-(α,α-dimethyl-3,4-methylenedioxybenzyl)-1,3,4-oxadiazolyl]carbonyl)-2-(R,S)-methylpropyl]acetamide]",0.34 nM,–,–,–
"CC(C)C(NC(=O)Cn1c(-c2ccc(F)cc2)nccc1=O)C(=O)c1nnc(C(C)(C)c2ccc3c(c2)OCO3)o1 (racemic) [Example 10, 2-[6-Oxo-2-(4-fluorophenyl)-1,6-dihydro-1-pyrimidinyl]-N-[1-(2-[5-(α,α-dimethyl-3,4-methylenedioxybenzyl)-1,3,4-oxadiazolyl]carbonyl)-2-(R,S)-methylpropyl]acetamide]",1.53 nM,–,–,–
"COC(=O)NC(C(=O)N1CCCC1C(=O)NC(C(=O)c1nnc(C(C)(C)c2ccccc2)o1)C(C)C)C(C)C [Example 2, Methyloxycarbonyl-L-valyl-N-[1-(2-[5-(α,α-dimethylbenzyl)oxadiazolyl]carbonyl)-2-(S)-methylpropyl]-L-prolinamide]",1.32 nM,7%,9%,62%
"CC(C)C(NC(=O)Cn1c(-c2ccccc2)nccc1=O)C(=O)c1nnc(C(C)(C)c2ccccc2)o1 (racemic) [Example 12, 2-[6-Oxo-2-phenyl-1,6-dihydro-1-pyrimidinyl]-N-[1-(2-[5-(α,α-dimethylbenzyl)-1,3,4-oxadiazolyl]carbonyl)-2-(R,S)-methylpropyl]acetamide]",1.83 nM,–,–,–
"COC(=O)NC(C(=O)N1CCCC1C(=O)NC(C(=O)c1nnc(C(C)(C)c2ccc3c(c2)OCO3)o1)C(C)C)C(C)C [Example 3, Methyloxycarbonyl-L-valyl-N-[1-(2-[5-(α,α-dimethyl-3,4-methylenedioxybenzyl)-1,3,4-oxadiazolyl]carbonyl)-2-(S)-methylpropyl]-L-prolinamide]",0.24 nM,44%,69%,99%
"COC(=O)NC(C(=O)N1CCCC1C(=O)NC(C(=O)c1nnc(C(C)(C)C)o1)C(C)C)C(C)C [Example 1, Methyloxycarbonyl-L-valyl-N-[1-(2-[5-(tert-butyl)oxadiazolyl]carbonyl)-2-(S)-methylpropyl]-L-prolinamide]",3 nM,–,–,–
